Where two headings read alike, the source gives them in different places.
Columns and labels:
[1] = cited from earlier work
[2] = in vivo; cited from earlier work
[3] = Intrasite vancomycin pharmacodynamics trial: systemic circulation serum vancomycin concentration; type: in vivo, human; conditions: all measured time-points, single IS dose (2 mg/cm^2; moderate doses); detectability limit printed >1.7 μg/ml
Experimental: (§1) Intrasite Vancomycin Pharmacodynamics Trial.
Intrasite Dosing of Vancomycin.
Systemic Circulation Serum Vancomycin Concentrations after IS Dose. In all of the 10 patients of the 2 mg/cm^2 dose cohort serum vancomycin levels remained undetectable at all measured time-points after a single IS dose. Detectability limit in these experiments was >1.7 μg/ml. This is interpreted as a strong indicator of safety with regard to systemic side effects and toxicities as well as evidence of a very wide therapeutic index when vancomycin is administered IS. This strongly contrasts to the higher probability of systemic toxicity and narrow therapeutic index when vancomycin is administered IV.

[4] = Intrasite vancomycin pharmacodynamics trial: wound seroma vancomycin levels via wound drain
Experimental: Intrasite Vancomycin Pharmacodynamics Trial. A single dose cohort pharmacodynamics trial was performed under FDA IND# 117494, the first FDA IND awarded for intrasite vancomycin. This dose cohort involved administration of a low dose of intrasite lyophilized vancomycin into complex instrumented spinal surgery wounds in adult patients. At multiple specific time points after surgery measurements were taken of vancomycin and […] levels in the blood stream and from the wound seroma fluid (via the wound drain). Measurements of endotoxin levels within the blood stream and seroma fluid were also taken at the same time points following surgery. All personnel present during administration of IS vancomycin were required to wear a certified fit N-90 mask to prevent inhalation of aerosolized vancomycin powder, which is a known safety risk for pulmonary fibrosis.
Intrasite Dosing of Vancomycin. Intrasite dosing was based on the surface area of the wound (tissues within the spinal wound lying deep to the skin). Wound surface area was estimated by a wound Length×Depth×2 calculation where length and mean depth were measured directed by the surgeon after surgical opening of the wound was completed. To assure safety, the maximum IS dose of vancomycin given to patients in this cohort was limited to well below the normal maximum safe IV dose of 2.5 g. Given that maximum wound surface areas created in spinal deformity patients are on the order of 1000 cm^2, a surface area dose of 2 mg/cm^2 provides for a maximum single dose of ˜2 g IS vancomycin, considered safe even if the entire dose absorbed into the circulation. To improve the homogeneity of IS dose application one third of the total calculated dose was delivered to the subepidermal tissues of the wound, superficial to the perimuscular fascia, one third of the total dose was applied to the subfascial muscle, bone, and other tissues, and one third of the total dose was milled with the bone graft before implantation.
Wound Vancomycin Levels Following a Single Intrasite Dose. Wound seroma vancomycin levels were measured via the wound drain at multiple time points for 4 days after a single intrasite dose given at the conclusion of surgery. […] However, vancomycin is a time-dependent killer of microbes and levels must exceed kill concentrations for up to 48 hrs to be completely effective.

[5] = tested on: Vancomycin-Resistant Staphylococcus aureus (VRSA); conditions: certain strains of VRSA; cited from earlier work
[6] = Intrasite vancomycin pharmacodynamics trial: adverse reactions; type: in vivo, human; conditions: IS dose 2 mg/cm^2, spinal surgery patients
Text: as §1
Adverse Reactions to IS Vancomycin. […] There was one example of a post-operative gram-negative bacterial surgical site infection which could not have been prevented by vancomycin because its spectrum of antimicrobial effects dies not cover this organism.

[7] = measured at 2 hrs after single IS dose 2 mg/cm^2, 10 patients
[8] = single IS dose 2 mg/cm^2, 10 patients
[9] = within the first 48 hrs after single IS dose 2 mg/cm^2, 10 patients

## CO[C@H]1/C=C/O[C@@]2(C)Oc3c(C)c(O)c4c(O)c(c5c(nc6cc(C)ccn65)c4c3C2=O)NC(=O)/C(C)=C\C=C\[C@H](C)[C@H](O)[C@@H](C)[C@@H](O)[C@@H](C)[C@H](OC(C)=O)[C@@H]1C [Rifaximin]
[1]; in vivo, po
  oral bioavailability: < 0.4%

## NC[C@H]1CC[C@H](C(=O)O)CC1 [TXA, trans-4-[aminomethyl]cyclohexanecarboxylic acid]
[1]; oral
  oral bioavailability: 34%
[2]
  half-life in the blood stream: approximately 2 hrs

## CN[C@H](CC(C)C)C(=O)N[C@H]1C(=O)N[C@@H](CC(N)=O)C(=O)N[C@H]2C(=O)N[C@H]3C(=O)N[C@H](C(=O)N[C@H](C(=O)O)c4cc(O)cc(O)c4-c4cc3ccc4O)[C@H](O)c3ccc(c(Cl)c3)Oc3cc2cc(c3O[C@@H]2O[C@H](CO)[C@@H](O)[C@H](O)[C@H]2O[C@H]2C[C@](C)(N)[C@H](O)[C@H](C)O2)Oc2ccc(cc2Cl)[C@H]1O [vancomycin]
[3]
  serum vancomycin level after IS dose: undetectable
[4]; [7]
  highest vancomycin concentration, subfascial wound compartment: 952 µg/mL
  highest vancomycin concentration, suprafascial wound compartment: 6110 µg/mL
[4]; moderate IS doses, also with seroma fluid removed via drains, preliminary evidence
  time vancomycin remains in high enough wound concentration for efficient suppression of gram-positive microorganisms: at least 4 days
[4]; [8]
  time mean subfascial vancomycin concentration exceeds threshold to kill VRSA (128 μg/ml): less than 24 hrs
  time mean suprafascial vancomycin concentration exceeds threshold to kill VRSA (128 μg/ml): more than 48 hrs
[4]; [9]
  lowest vancomycin concentration, subfascial wound compartment: 4.1 µg/mL
  lowest vancomycin concentration, suprafascial wound compartment: 16.2 µg/mL
[5]
  minimum 90% bactericidal concentration (MBC^90): 64 µg/mL
[6]
  adverse reactions related to IS vancomycin: no patient- or practitioner-identified adverse reactions

Reference: US20180221296A1, “INTRASITE ADMINISTRATION AND DOSING METHODS AND PHARMACEUTICALS FOR USE THEREIN” (HKL Medical, LLC, priority 2017, published 2018)
